Values quoted from earlier work as cited in patent US20120232274A1, “PROCESS FOR PREPARATION OF CLOPIODOGREL BISULFATE FORM-1” (PHARMAZELL GMBH, priority 2009, published 2012).

Experiments:
[1] = Form 2 compared with Form 1 of Clopidogrel bisulfate
[2] = Form 2 compared with Form 1 of Clopidogrel bisulfate; remark: listed apart in the source

- solubility [1]: lower solubility than Form 1
- thermodynamic stability [2]: greater thermodynamic stability
Structure (SMILES): COC(=O)[C@H](c1ccccc1Cl)N1CCc2sccc2C1 [Form 2, Clopidogrel bisulfate]
